A short description of the data set: Human HepG2 cell viability assay in 384 well format. Type of data set: toxicity, cell-based. Also noted: dose 125 nL, time 70.5 hour; cytotoxicity at 70.5 h: concentration not given beside the values. The note with it: HepG2 cells, read-out: Inhibition.
In the case of `O=C(C1CC1)N1CCC2(CC1)CNCc1ccccc12`, the cytotoxicity at 70.5 h was 18.9%.

With `CC(=O)N1CCN(C(C)c2nnc(CC(C)C)o2)CC1` (stereo unspecified), the cytotoxicity at 70.5 h was -4.1%.

On to `CCCc1nc(C)cc(NC(C)Cc2cnccn2)n1` (stereo unspecified), for which the cytotoxicity at 70.5 h was -10.8%.

Consider `CC(C)N1CCC(N(C)c2ccnc(N(C)C)n2)CC1`, for which the cytotoxicity at 70.5 h is -2.26%.

Take `CC(c1ccon1)N(C)C(=O)C1CCN(CC(N)=O)CC1` (stereo unspecified): the cytotoxicity at 70.5 h stood at 18%.

As for `Cc1cc(CN(C)C(=O)NCC(C)N2CCc3ccccc32)no1` (stereo unspecified), the cytotoxicity at 70.5 h is -2.66%.

On to `Cn1cc(C#N)cc1C(=O)NC1(C#N)CCSCC1`, for which the cytotoxicity at 70.5 h was -4.89%.

For `Cc1cc(C(=O)N2CCCC(C)C2)ccc1NCc1nc(C2CC2)no1` (stereo unspecified), the cytotoxicity at 70.5 h was -13.1%.

As to `O=C(Nc1cccn(CC(F)(F)F)c1=O)c1ccc(F)cc1`, the cytotoxicity at 70.5 h stood at 19.4%.

As to `Cc1cc(CNC(=O)CC2CCN(C(C)C)CC2)n(C)n1`, the cytotoxicity at 70.5 h came out at 16.3%.

As for `Cc1csc(N2CCCN(Cc3ccn(C)c(=O)c3)CC2)n1`, the cytotoxicity at 70.5 h is -3.93%.

`COc1ccc2c(c1)OCC(Cc1cnccc1N)C2` (stereo unspecified): the cytotoxicity at 70.5 h was -3.68%.

On to `Cc1noc(C(C)Nc2ccc3c(c2)CCC3)n1` (stereo unspecified), for which the cytotoxicity at 70.5 h is 8.72%.

In the case of `OC(CN1CCCCc2ccccc21)Cn1cccn1` (stereo unspecified), the cytotoxicity at 70.5 h amounted to 1.14%.

For the molecule `CCc1nc(CN(C)C(=O)NCc2cccc(NC(C)=O)c2)cs1`, the cytotoxicity at 70.5 h was -10.2%.

With `O=C1N[C@@H]2CCN(C(=O)C3CC3)[C@@H]2C(=O)N1c1ccccc1`, the cytotoxicity at 70.5 h is -10.7%.

`CC1CN(c2ncccc2C(=O)Nc2cccc3c2CCCC3)CCN1` (stereo unspecified): the cytotoxicity at 70.5 h was -5.69%.

On to `COc1ccc2c(c1)CCCN2C(=O)NC1CCCCNC1=O` (stereo unspecified), for which the cytotoxicity at 70.5 h was 23.6%.

For `Cc1ccc(S(=O)(=O)NC(C)(C)CN)c(F)c1`, the cytotoxicity at 70.5 h is -1.04%.

For the molecule `O=c1[nH]c2ccc(S(=O)(=O)N(CCO)Cc3ccncc3)cc2[nH]1`, the cytotoxicity at 70.5 h was -4.4%.

With `COCCO[C@H]1CCN(C(=O)c2ccno2)[C@H]1Cc1cnn(C)c1`, the cytotoxicity at 70.5 h was -0.314%.

As for `CC(C)COc1ccccc1C(N)CC(C)C` (stereo unspecified), the cytotoxicity at 70.5 h is -10.1%.

Consider `CC(C)c1cnc(CN2CCCS2(=O)=O)o1`, for which the cytotoxicity at 70.5 h was -1.78%.

In the case of `CCC1C(=O)NCCN1c1nccc(C)n1` (stereo unspecified), the cytotoxicity at 70.5 h turned out to be 45.2%.

With `Cn1c(CC2CCS(=O)(=O)C2)nnc1SCCOc1cccc(Cl)c1` (stereo unspecified), the cytotoxicity at 70.5 h was -11.2%.

For `COc1cc(C(=O)NS(=O)(=O)c2cncc(Br)c2)ccc1C`, the cytotoxicity at 70.5 h is -19%.

Turning to `CCc1nsc(N2CCN(Cc3ccno3)CC2)n1`, the cytotoxicity at 70.5 h was -0.144%.

In the case of `CC(C)c1noc(CCC(=O)NCC(c2ccco2)N2CCCC2)n1` (stereo unspecified), the cytotoxicity at 70.5 h is -7.17%.

As to `O=C(CSCCN1CCOCC1)N1CCc2ccccc2C1`, the cytotoxicity at 70.5 h was found to be 17.6%.

As for `Cn1cc(-c2cc(C(=O)N3CCOCC3)c3ccc(F)cc3n2)cn1`, the cytotoxicity at 70.5 h came to 24.6%.

Regarding `NCC1CCN(c2nc(C3CCCC3)nc3c2CCNCC3)C1` (stereo unspecified), the cytotoxicity at 70.5 h was found to be 21.5%.

Turning to `CNC(=O)CCc1cc(C)nc(C2CCCN2)c1` (stereo unspecified), the cytotoxicity at 70.5 h was -13.7%.

Turning to `Cn1cc(C2CCCN2C(=O)Cn2ccc3ccccc32)cn1` (stereo unspecified), the cytotoxicity at 70.5 h was -0.47%.

Turning to `COCc1nc(N(C)C)ncc1C(=O)NC(C)c1ccccc1` (stereo unspecified), the cytotoxicity at 70.5 h is -5.51%.

For the molecule `CCNc1ccnc(N2CCCC(CCOC)(C(=O)O)C2)n1` (stereo unspecified), the cytotoxicity at 70.5 h was determined as 23.1%.

As for `CCCN(Cc1cccnc1)C(=O)C1CCN(Cc2ccco2)CC1`, the cytotoxicity at 70.5 h is -2.7%.

For `CCc1nnc2n1CCN(C(=O)c1ccc(-c3ccco3)[nH]c1=O)C2`, the cytotoxicity at 70.5 h is -6.59%.

`CS(=O)(=O)N1CC2(CCCN(C3COC3)C2)Cc2ccccc21` (stereo unspecified): the cytotoxicity at 70.5 h is -3.97%.

`COCC1N(C(=O)N2CCOCC2)[C@H]2CC[C@]1(O)CC2` (stereo partly specified): the cytotoxicity at 70.5 h is -1.43%.

`CCOCCC1(CNC(=O)c2ccncc2)CCC1`: the cytotoxicity at 70.5 h is -5.08%.

For the molecule `O=C(O)c1ccn(COc2c(Cl)cccc2Cl)n1`, the cytotoxicity at 70.5 h is -7.49%.

On to `CC(C)c1nnc(NC(=O)N2CCN(C)CC2c2ccccc2)s1` (stereo unspecified), for which the cytotoxicity at 70.5 h came out at 9.58%.

As for `CCC[C@@H]1CN(C(=O)c2ccccc2-c2ccccc2)C[C@H]1N(C)C`, the cytotoxicity at 70.5 h amounted to 0.165%.

On to `Cc1cc(-c2cnn(CCNC(=O)C3CC3)c2C2CC2)on1`, for which the cytotoxicity at 70.5 h amounted to 27%.

As to `CN1CCC(Nc2cc(Cl)ccc2OCC(F)(F)F)C1=O` (stereo unspecified), the cytotoxicity at 70.5 h is -1.29%.

With `OCCCNc1cccc(COC2CCCCC2)c1`, the cytotoxicity at 70.5 h is 21%.

As for `COc1ccccc1CNC(=O)c1[nH]ncc1Cl`, the cytotoxicity at 70.5 h is 6.24%.

`CCC(=O)N1CCN(C(=O)Nc2cccc(F)c2)[C@H]2CS(=O)(=O)C[C@H]21`: the cytotoxicity at 70.5 h was -2.91%.

Take `COCc1nc2cc(NCc3csc(C)n3)ccc2o1`: the cytotoxicity at 70.5 h stood at 3.55%.

In the case of `CCN(CC(=O)N(C)C)C(=O)c1nc(C)n(-c2ccccc2Cl)n1`, the cytotoxicity at 70.5 h was -0.577%.

For `CN(C)CCO[C@H]1C[C@@H](O)C12CCN(c1cnccn1)CC2`, the cytotoxicity at 70.5 h is -6.05%.

Turning to `CSCc1noc(CNC(=O)[C@H]2CNC[C@@H](C(=O)N3CCCC3)C2)n1`, the cytotoxicity at 70.5 h is -14.4%.

With `Cc1ccc(C(C(=O)N2CCN(C(=O)c3ccc[nH]3)CC2)N(C)C)cc1` (stereo unspecified), the cytotoxicity at 70.5 h is -3.84%.

Regarding `Cc1ccc(CNC(=O)Nc2nncs2)n1C`, the cytotoxicity at 70.5 h is -7.51%.

Regarding `CC(C)(C)n1ncc2c1NC(=O)CC2c1ccccc1` (stereo unspecified), the cytotoxicity at 70.5 h was -7.73%.

With `CCCc1cc(C(=O)N(C)Cc2cnc3ccccc3n2)n(C)n1`, the cytotoxicity at 70.5 h is -4.51%.

For `Cc1nc(CN2C[C@@H]3CN(C(=O)c4ccoc4C)C[C@@H]3C2)cs1`, the cytotoxicity at 70.5 h turned out to be 28.2%.

`Cc1ccc(CNC(=O)NCCCO)cc1`: the cytotoxicity at 70.5 h amounted to 19.3%.

With `CCCNC(=O)N1CCc2ccc(S(=O)(=O)N3CCN(C)CC3)cc2C1`, the cytotoxicity at 70.5 h was -16.2%.

`CCN(CC)S(=O)(=O)CC(=O)Nc1ccsc1`: the cytotoxicity at 70.5 h is -14.5%.

Turning to `CC(=O)N1CCC(NCc2cccnc2N(C)Cc2ccccc2)CC1`, the cytotoxicity at 70.5 h was -6.72%.

For `Cc1cc(O)nc(C2CN(CC3(O)CCOCC3)CCO2)n1` (stereo unspecified), the cytotoxicity at 70.5 h turned out to be 8.89%.

On to `COCCSCC(=O)NCc1ccnc(N(C)C)c1`, for which the cytotoxicity at 70.5 h was -8.31%.

Regarding `CCN(C(=O)CCCOc1ccccc1F)c1ccncc1`, the cytotoxicity at 70.5 h turned out to be 1.58%.

With `CC(C)C(=O)N1CCCC2(CC(C(=O)NCc3cccnc3)=NO2)C1` (stereo unspecified), the cytotoxicity at 70.5 h is -2.66%.

For `O=C(NC[C@H]1OC[C@@H](NC2COC2)[C@@H]1O)Nc1ccccc1`, the cytotoxicity at 70.5 h is -1.19%.

`CCCc1cc(NCCn2cccn2)n2nccc2n1`: the cytotoxicity at 70.5 h is 1.84%.

`CCS(=O)(=O)CCNC(=O)c1ccc(-c2ccc(C)cc2)cc1F`: the cytotoxicity at 70.5 h is -6.67%.

In the case of `CCCNc1ccc(C(=O)NCCc2cccc(OC)c2)cn1`, the cytotoxicity at 70.5 h is -3.99%.

As for `OCCN1CCOC2(CCCN(c3cccc(F)c3)C2)C1` (stereo unspecified), the cytotoxicity at 70.5 h is -7.62%.

For `O=S(=O)(c1ccccc1)N1CCC2(CCCN2Cc2ccccc2Cl)C1` (stereo unspecified), the cytotoxicity at 70.5 h came to 22.5%.

Regarding `Cc1occc1C(=O)N1Cc2nccn2CC(CN2CCCC2)C1` (stereo unspecified), the cytotoxicity at 70.5 h was -14.1%.

In the case of `Cc1cccc(CN2C[C@@H]3CN(C(=O)c4ccsc4)C[C@@H]3C2=O)n1`, the cytotoxicity at 70.5 h was -2.24%.

Turning to `Cc1ccc(C(=O)NCCCNS(C)(=O)=O)cc1-n1cccc1`, the cytotoxicity at 70.5 h is -4.62%.

`CN(C)CCOCc1nnc2n1CCN(Cc1ccsc1)C2`: the cytotoxicity at 70.5 h stood at 2.24%.

As for `CN1CCOC(CN(C(=O)CCc2ccco2)c2nccs2)C1` (stereo unspecified), the cytotoxicity at 70.5 h is 10.3%.

For the molecule `CC1N(C)C(=O)COC12CCN(C(=O)Cc1ccsc1)CC2` (stereo unspecified), the cytotoxicity at 70.5 h was -5.66%.

On to `Cc1ccc(NC2CCN(C(=O)c3cncnc3C)CC2)nn1`, for which the cytotoxicity at 70.5 h amounted to 14.7%.

On to `COc1cc(NC2CCCN(c3ncccn3)C2)cc(OC)c1` (stereo unspecified), for which the cytotoxicity at 70.5 h came to 3.49%.

As to `CC1(C)CNC(=O)c2nc(CCN3CCC(C(N)=O)CC3)[nH]c2C1`, the cytotoxicity at 70.5 h is -11.8%.

Turning to `Cc1cccc(-c2nc(CN3CCc4cncnc4C3)no2)c1`, the cytotoxicity at 70.5 h was -4.67%.

As for `Cc1nn(C)c(N2CCOCC2)c1CNC1CCOc2ccccc21` (stereo unspecified), the cytotoxicity at 70.5 h was -3.07%.

As to `CN(Cc1ccc(-n2cccn2)cc1)C(=O)CCC(F)(F)F`, the cytotoxicity at 70.5 h was found to be 26.9%.

Consider `Cc1cc(-c2cnc(NC3CCCC3)nc2-c2ccoc2C)on1`, for which the cytotoxicity at 70.5 h is -8.8%.

Consider `CC(C)Oc1cccc(F)c1C(C(=O)O)N(C)Cc1ccon1` (stereo unspecified), for which the cytotoxicity at 70.5 h was determined as 0.036%.

For `CNc1nc(CN2C[C@@H](NC(C)=O)[C@H](c3ccc(C)o3)C2)cs1`, the cytotoxicity at 70.5 h is -16.5%.

Consider `Nc1ccc(C(=O)N2C[C@@H]3CC[C@H](C2)N(Cc2ccccc2)C3)cn1`, for which the cytotoxicity at 70.5 h was -2.24%.

As to `CC(Cn1cccn1)NC(=O)Nc1ccc(N2CCCCC2)nc1` (stereo unspecified), the cytotoxicity at 70.5 h was -7.26%.

Turning to `Cc1ccc(CN(CCCN2CCOCC2)Cc2cncn2C)o1`, the cytotoxicity at 70.5 h is -4.09%.

On to `Cc1nnc2n1CCN(CCOc1ccc(C(C)(C)C)cc1)C2`, for which the cytotoxicity at 70.5 h is -4.66%.

Consider `COCc1nc2cc(NCc3nc(C)cs3)ccc2o1`, for which the cytotoxicity at 70.5 h is -2.56%.

With `CC(C)CN1Cc2nc(N3CCCC(C)C3)ncc2C1=O` (stereo unspecified), the cytotoxicity at 70.5 h is -9.32%.

`CN(Cc1nnc(C2CC2)n1C)S(=O)(=O)Cc1ccccc1F`: the cytotoxicity at 70.5 h was -20.7%.

Take `Cc1cnc(C(=O)N2C[C@H]3CCCC(OCc4cccnc4)[C@H]3C2)cn1` (stereo partly specified): the cytotoxicity at 70.5 h is -3.45%.

Take `O=C(O)c1cccnc1N1CCN(Cc2ccc(F)cc2)C(CCO)C1` (stereo unspecified): the cytotoxicity at 70.5 h is 22.4%.

For the molecule `O=C(C[C@@H]1COC[C@H]2CN(Cc3ccc(F)cc3)C[C@@H]12)N1CCCCO1`, the cytotoxicity at 70.5 h was -14.5%.

In the case of `COCC1CN(Cc2ccncc2)Cc2nnn(CC3CC3)c21` (stereo unspecified), the cytotoxicity at 70.5 h was -10.7%.

For `c1cc(-c2nnc([C@H]3CCNC3)o2)ccn1`, the cytotoxicity at 70.5 h was -2.31%.

Regarding `CC(=O)NCCNc1nc(C2CCCC2)nc2c1cnn2C`, the cytotoxicity at 70.5 h is -5.79%.

`CCC(=O)N1CCc2[nH]cnc2C12CCN(C(=O)c1snnc1C)CC2`: the cytotoxicity at 70.5 h is -10.6%.

Take `NC(=O)c1cn(CC2CC2)c(C2CC2)n1`: the cytotoxicity at 70.5 h is -7.32%.
